According to ChEMBL document CHEMBL5729397, “Targeted drug rescue with novel compositions, combinations, and methods thereof” (2022):

Target: Cytochrome P450 2D6 (Homo sapiens, UniProt P10635)
Experiment: Inhibition of Dextromethorphan Metabolism: Dextromethorphan O-demethylase activity was determined in human liver microsomes. […] The incubation mixtures contained pooled human liver microsomes (final concentrations: 0.25 mg/ml), dextromethorphan, and a NADPH-generating system (1.3 mM NADP+, 3.3 mM glucose 6-phosphate, 3.3 mM MgCl2, and 0.4 U/ml glucose-6-phosphate dehydrogenase). […] All incubations were performed in triplicate, and mean values were used for analysis.

Sequence of Cytochrome P450 2D6 (P10635 whole entry): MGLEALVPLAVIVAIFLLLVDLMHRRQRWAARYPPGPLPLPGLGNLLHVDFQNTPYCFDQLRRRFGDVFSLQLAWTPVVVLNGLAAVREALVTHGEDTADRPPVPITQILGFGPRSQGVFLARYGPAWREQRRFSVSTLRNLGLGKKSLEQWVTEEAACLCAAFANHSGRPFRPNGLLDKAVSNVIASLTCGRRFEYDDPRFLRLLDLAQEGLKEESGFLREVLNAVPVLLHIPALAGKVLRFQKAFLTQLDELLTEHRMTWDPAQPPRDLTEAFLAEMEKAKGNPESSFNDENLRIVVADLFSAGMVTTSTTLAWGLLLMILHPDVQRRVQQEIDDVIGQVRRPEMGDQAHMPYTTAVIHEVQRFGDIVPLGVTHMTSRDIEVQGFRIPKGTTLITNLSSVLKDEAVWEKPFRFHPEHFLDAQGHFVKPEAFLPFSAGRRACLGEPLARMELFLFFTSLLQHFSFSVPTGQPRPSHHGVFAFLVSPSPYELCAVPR

- IC50: 1200 nM
Compound: COc1ccc(CCc2ccccc2OCC(CN(C)C)OC(=O)CCC(=O)O)cc1 (stereo unspecified)
